According to US8377984B2, “Substituted gamma lactams as therapeutic agents” (Allergan, Inc., priority 2008, dated 2013):
pEC50, pKi: −log10 of the molar value. Each block holds one molecule with its values, some of them ahead of it.

Key:
[1] = tested on: normotensive dogs; assay: Ocular surface hyperemia (OSH) in normotensive dogs; format: in vivo; conditions: 0.003%
Experimental: In Vivo Data (S)-5-(3-(1-(4-hexylphenyl)-5-oxopyrrolidin-2-yl)propyl)thiophene-2-carboxylic acid 2-hydroxyethyl ester (3) was tested in normotensive dogs at 0.003%, dosing once daily for 5 days. The maximum intraocular pressure (IOP) decrease from baseline was 5.9 mmHg (36%) at 54 h; the maximum ocular surface hyperemia (OSH) score was 1.1 at 74 h. This compound was also tested in laser-induced hypertensive monkeys, using one single day dose. At 0.003%, the maximum IOP decrease from baseline was 17 mmHg (44%) at 6 h.
(S)-5-(3-(1-(4-hexylphenyl)-5-oxopyrrolidin-2-yl)propyl)thiophene-2-carboxylic acid (9) was tested in normotensive dogs at 0.003%, dosing once daily for 5 days. The maximum intraocular pressure (IOP) decrease from baseline was 4.7 mmHg (29%) at 6 h; the maximum ocular surface hyperemia (OSH) score was 1.9 at 76 h. This compound was also tested in laser-induced hypertensive monkeys, using one single day dose. At 0.003%, the maximum IOP decrease from baseline was 9 mmHg (23%) at 6 h.
(S)-5-(3-(1-(4-hexylphenyl)-5-oxopyrrolidin-2-yl)propyl)thiophene-2-carboxylic acid isopropyl ester was tested in normotensive dogs at 0.003%, dosing once daily for 4 days. The maximum intraocular pressure (IOP) decrease from baseline was 3.9 mmHg (24%) at 30 h; the maximum ocular surface hyperemia (OSH) score was 0.7 at 28 h. This compound was also tested in laser-induced hypertensive monkeys, using one single day dose. At 0.003%, the maximum IOP decrease from baseline was 12 mmHg (28%) at 6 h.

[2] = target: T1, EP2 (Homo sapiens, UniProt P43116); assay: EP2 flipr; format: cell-based
[3] = target: T1, EP2; assay: EP2 cAMP; format: cell-based
[4] = target: T1, EP2; assay: EP2 binding (Ki)
[5] = target: T2, EP4 (Homo sapiens, UniProt P35408); assay: EP4 flipr; format: cell-based
[6] = target: T2, EP4; assay: EP4 binding (Ki)
[7] = target: T3, hEP3A (Homo sapiens, UniProt P43115); assay: Other receptors, hEP3A; format: cell-based
T3 sequence (P43115 1-390): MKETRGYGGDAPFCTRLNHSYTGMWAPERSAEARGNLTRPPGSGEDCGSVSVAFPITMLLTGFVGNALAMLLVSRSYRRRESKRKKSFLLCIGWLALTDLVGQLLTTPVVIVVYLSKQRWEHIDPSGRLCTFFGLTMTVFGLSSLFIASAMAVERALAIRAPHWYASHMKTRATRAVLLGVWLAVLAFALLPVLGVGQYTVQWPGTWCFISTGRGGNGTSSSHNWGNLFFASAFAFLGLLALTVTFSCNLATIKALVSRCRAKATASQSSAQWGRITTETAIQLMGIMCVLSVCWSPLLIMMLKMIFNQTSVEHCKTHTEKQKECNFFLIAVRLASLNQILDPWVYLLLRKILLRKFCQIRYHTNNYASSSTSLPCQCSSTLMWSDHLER

[8] = target: T4, hDP (Homo sapiens, UniProt Q13258); assay: Other receptors, hDP; format: cell-based
T4 sequence (Q13258 1-359): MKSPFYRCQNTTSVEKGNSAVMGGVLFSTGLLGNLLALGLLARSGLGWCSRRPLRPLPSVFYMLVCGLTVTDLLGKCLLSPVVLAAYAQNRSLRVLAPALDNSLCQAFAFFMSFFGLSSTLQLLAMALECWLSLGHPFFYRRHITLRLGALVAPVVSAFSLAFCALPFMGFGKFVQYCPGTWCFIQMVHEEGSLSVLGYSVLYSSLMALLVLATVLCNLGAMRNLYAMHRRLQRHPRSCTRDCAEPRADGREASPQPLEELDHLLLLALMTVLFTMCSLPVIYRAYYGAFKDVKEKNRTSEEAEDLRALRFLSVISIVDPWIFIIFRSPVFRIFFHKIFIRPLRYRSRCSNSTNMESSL

T1 sequence (P43116 whole entry): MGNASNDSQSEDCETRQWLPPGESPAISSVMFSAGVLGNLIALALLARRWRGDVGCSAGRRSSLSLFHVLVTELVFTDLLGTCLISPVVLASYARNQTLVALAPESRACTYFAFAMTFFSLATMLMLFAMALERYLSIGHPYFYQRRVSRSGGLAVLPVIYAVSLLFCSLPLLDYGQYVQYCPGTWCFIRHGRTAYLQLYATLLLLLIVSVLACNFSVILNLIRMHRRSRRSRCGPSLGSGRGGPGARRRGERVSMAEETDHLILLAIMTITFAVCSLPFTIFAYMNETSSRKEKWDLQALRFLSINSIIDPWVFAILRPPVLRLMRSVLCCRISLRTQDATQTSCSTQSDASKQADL
T2 sequence (P35408 whole entry): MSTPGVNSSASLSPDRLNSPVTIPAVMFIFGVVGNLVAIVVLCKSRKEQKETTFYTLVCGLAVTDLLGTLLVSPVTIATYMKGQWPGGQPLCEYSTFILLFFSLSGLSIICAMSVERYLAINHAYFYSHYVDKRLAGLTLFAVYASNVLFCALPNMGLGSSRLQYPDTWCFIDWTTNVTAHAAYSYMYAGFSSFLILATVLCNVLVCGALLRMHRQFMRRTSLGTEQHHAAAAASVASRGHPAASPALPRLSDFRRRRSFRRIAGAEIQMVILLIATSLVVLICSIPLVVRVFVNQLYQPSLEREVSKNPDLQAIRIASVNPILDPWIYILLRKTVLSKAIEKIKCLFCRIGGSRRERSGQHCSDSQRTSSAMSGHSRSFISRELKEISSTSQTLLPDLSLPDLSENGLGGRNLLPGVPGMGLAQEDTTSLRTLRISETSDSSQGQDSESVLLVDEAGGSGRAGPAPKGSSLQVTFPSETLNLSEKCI

maximum ocular surface hyperemia (OSH) score ([1]; once daily for 4 days, at 28 h): 0.7
Structure (SMILES): CCCCCCc1ccc(N2C(=O)CC[C@@H]2CCCc2ccc(C(=O)OC(C)C)s2)cc1 [(S)-5-(3-(1-(4-hexylphenyl)-5-oxopyrrolidin-2-yl)propyl)thiophene-2-carboxylic acid isopropyl ester]

maximum ocular surface hyperemia (OSH) score ([1]; once daily for 5 days, at 74 h): 1.1
Structure (SMILES): CCCCCCc1ccc(N2C(=O)CC[C@@H]2CCCc2ccc(C(=O)OCCO)s2)cc1 [Compound 3, (S)-5-(3-(1-(4-hexylphenyl)-5-oxopyrrolidin-2-yl)propyl)thiophene-2-carboxylic acid 2-hydroxyethyl ester]

maximum ocular surface hyperemia (OSH) score ([1]; once daily for 5 days, at 76 h): 1.9
pEC50 [2]: 8.30
pEC50 [3]: 9.30
pKi [4]: 8.52
pEC50 [5]: 4.95
pKi [6]: 5.58
EC50 [7]: 1550 nM
EC50 [8]: 389 nM
Structure (SMILES): CCCCCCc1ccc(N2C(=O)CC[C@@H]2CCCc2ccc(C(=O)O)s2)cc1 [Compound 9, (S)-5-(3-(1-(4-hexylphenyl)-5-oxopyrrolidin-2-yl)propyl)thiophene-2-carboxylic acid]
